Assay results as given in ChEMBL document CHEMBL1932991, “Novel ATP competitive MK2 inhibitors with potent biochemical and cell-based activity throughout the series” (Bioorg Med Chem Lett, 2012).

Legend:
THP-1 = test: Inhibition of LPS-induced TNFalpha production in human THP1 cells pre-incubated for 30 mins prior to LPS-induction measured after 4 hrs by ELISA; format: functional, cell-based
PBMC = test: Inhibition of LPS-induced TNFalpha production in human PBMC pre-incubated for 30 mins prior to LPS-induction measured after 4 hrs by ELISA; format: functional, cell-based
[1] = molecular target: T1, MAP kinase-activated protein kinase 2 (Homo sapiens, UniProt P49137); test: Inhibition of MK2-mediated HSP27 phosphorylation in LPS-stimulated human THP1 cells pre-incubated for 60 mins prior to LPS-induction measured after 60 mins by multi-spot assay; format: cell-based, THP-1
[2] = molecular target: T1, MAP kinase-activated protein kinase 2; test: Inhibition of MK2 using Fluo-betaA-11A NeoMPS as substrate pre-incubated for 30 mins before substrate addition measured after 2 hrs by IMAP assay
[3] = Dissociation constant, pKa of the compound at pH 7.4; format: physicochemical
[4] = Plasma protein binding in human; format: ADME, cell-free; settings: read-out: PPB (converted)
[5] = Permeability of the compound by PAMPA; format: ADME; settings: for Papp: read-out: permeability

T1 sequence (P49137 whole entry): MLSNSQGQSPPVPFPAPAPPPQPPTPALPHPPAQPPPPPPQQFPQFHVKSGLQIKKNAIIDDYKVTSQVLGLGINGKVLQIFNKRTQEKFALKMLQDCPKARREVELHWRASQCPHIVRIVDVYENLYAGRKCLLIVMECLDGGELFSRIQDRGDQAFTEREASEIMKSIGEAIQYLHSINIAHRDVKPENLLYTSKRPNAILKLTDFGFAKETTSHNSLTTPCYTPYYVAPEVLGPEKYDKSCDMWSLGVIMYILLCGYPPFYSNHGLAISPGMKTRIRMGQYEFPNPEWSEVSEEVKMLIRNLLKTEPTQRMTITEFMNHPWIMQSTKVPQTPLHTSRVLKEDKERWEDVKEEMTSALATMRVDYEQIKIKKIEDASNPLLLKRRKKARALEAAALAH

EC50 (THP-1; Homo sapiens, THP-1) [nM]	EC50 [1] [nM]	EC50 [2] [nM]	pKa [3]	fraction unbound [4]	EC50 (THP-1; thp-1) [nM]	permeability [5] [×10⁻⁶ cm/s]	Papp [5] [×10⁻⁶ cm/s]	Structure (SMILES)	EC50 (PBMC; Homo sapiens, PBMC) [nM]	EC50 (PBMC; pbmc) [nM]
540	640	2.5						CN1CCC2(CC1)CNC(=O)c1cc(-c3ccnc(NC(=O)c4cccc(F)c4)c3)[nH]c12	30	
230	350	1						Cc1ccc(C(=O)Nc2cc(-c3cc4c([nH]3)C3(CCNCC3)CNC4=O)ccn2)cc1C	890	
660	1300	1.6						O=C(Nc1cc(-c2cc3c([nH]2)C2(CCNCC2)CNC3=O)ccn1)c1ccc(C(F)(F)F)cc1	1600	
3400		5.1						O=C(Nc1nccc(-c2cc3c([nH]2)C2(CCNCC2)CNC3=O)n1)c1ccc2ccccc2c1		
720	550	1.4						O=C(Nc1cc(-c2cc3c([nH]2)C2(CCNCC2)CNC3=O)ccn1)c1ccccn1	260	
690	400	1.6	8.4	0.017				O=C(Nc1cc(-c2cc3c([nH]2)C2(CCNC2)CNC3=O)ccn1)c1cccc(OC(F)(F)F)c1 (racemic)	650	
> 10000		14						O=C1NCC2(CCNCC2)c2[nH]c(-c3ccnc(NC(=O)c4cccc5ccccc45)n3)cc21		
	870	8.9			320	0.5		O=C(Nc1cc(-c2cc3c([nH]2)C2(CCCNC2)CNC3=O)ccn1)c1ccc(F)cc1 (racemic)		
		5.5			650			Cc1ccc(C(=O)Nc2cc(-c3cc4c([nH]3)C3(CCCNC3)CNC4=O)ccn2)cc1C (stereo in doubt; 3dS1)		
340	240	0.71					0.2	Cc1ccc(C(=O)Nc2cc(-c3cc4c([nH]3)C3(CCNC3)CNC4=O)ccn2)cc1C (racemic)	150	
320	280	0.72	9.2	0.003				O=C(Nc1cc(-c2cc3c([nH]2)C2(CCNCC2)CNC3=O)ccn1)c1ccc2ccccc2c1	230	
850	590	3.3						O=C(Nc1cc(-c2cc3c([nH]2)C2(CCCNC2)CNC3=O)ccn1)c1cccc(C(F)(F)F)c1 (racemic)	140	
> 10000	> 10000	2.6						O=C(Nc1cc(-c2cc3c([nH]2)C2(CCNCC2)CNC3=O)ccn1)c1ccncc1	2600	
780	680	1.1					0.6	O=C(Nc1cc(-c2cc3c([nH]2)C2(CCNCC2)CNC3=O)ccn1)c1cccc(F)c1	150	
510	530	2.5						O=C(Nc1cc(-c2cc3c([nH]2)C2(CCCNC2)CNC3=O)ccn1)c1ccc2ccccc2c1 (single isomer, unassigned; stereoisomer 1)		170
1300	1200	9.1						O=C(Nc1cc(-c2cc3c([nH]2)C2(CCCNC2)CNC3=O)ccn1)c1ccc(C(F)(F)F)cc1 (racemic)	480	
7900		15						O=C(Nc1nccc(-c2cc3c([nH]2)C2(CCNCC2)CNC3=O)n1)c1ccc(F)cc1		
	320	2.4			310	1.1		O=C(Nc1cc(-c2cc3c([nH]2)C2(CCCNC2)CNC3=O)ccn1)c1ccc(F)cc1 (stereo in doubt; 6dS1)		70
220	1100	5.1					0.1	O=C1NCC2(CCCNC2)c2[nH]c(-c3ccnc(NC(=O)c4cccc5ccccc45)c3)cc21 (racemic)	390	
620	610	11	8.2	0.013				O=C(Nc1cc(-c2cc3c([nH]2)C2(CCCNC2)CNC3=O)ccn1)c1cccc(OC(F)(F)F)c1 (racemic)	200	

EC50 (THP-1; Homo sapiens, THP-1) [nM]	EC50 [1] [nM]	EC50 [2] [nM]	pKa [3]	fraction unbound [4]	EC50 (THP-1; thp-1) [nM]	permeability [5] [×10⁻⁶ cm/s]	Papp [5] [×10⁻⁶ cm/s]	Structure (SMILES)	EC50 (PBMC; Homo sapiens, PBMC) [nM]	EC50 (PBMC; pbmc) [nM]
		129	8.2	0.004				O=C(Nc1cc(-c2cc3c([nH]2)C2(CCCNC2)CNC3=O)ccn1)c1ccc2ccccc2c1 (single isomer, unassigned)		
	1100	7.6			780			O=C(Nc1cc(-c2cc3c([nH]2)C2(CCCNC2)CNC3=O)ccn1)c1ccc2ccccc2c1 (racemic)		70
1100	730	2.6	8.3	0.005				CN1CCC2(CC1)CNC(=O)c1cc(-c3ccnc(NC(=O)c4ccc5ccccc5c4)c3)[nH]c12	70	
480	660	4.2					0.2	O=C(Nc1cc(-c2cc3c([nH]2)C2(CCCNC2)CNC3=O)ccn1)c1ccccn1 (racemic)	130	
1100	590	2.5					6.3	O=C(Nc1cc(-c2cc3c([nH]2)C2(CCCNC2)CNC3=O)ccn1)c1cc(F)cc(F)c1 (racemic)	140	
1300	3700	1.6						O=C(Nc1cc(-c2cc3c([nH]2)C2(CCNCC2)CNC3=O)ccn1)c1ccc(F)cc1	1400	
	5300	32			8500		1	Cc1ccc(C(=O)Nc2cc(-c3cc4c([nH]3)C3(CCCNC3)CNC4=O)ccn2)cc1C (single isomer, unassigned; stereoisomer 2)		1200
1000	830	2.7	8.4	0.027				CN1CCC2(CC1)CNC(=O)c1cc(-c3ccnc(NC(=O)c4cccc(OC(F)(F)F)c4)c3)[nH]c12	50	
	690	8.1			460			Cc1ccc(C(=O)Nc2cc(-c3cc4c([nH]3)C3(CCCNC3)CNC4=O)ccn2)cc1C (racemic)		40
560		6.2					1.9	O=C(Nc1cc(-c2cc3c([nH]2)C2(CCCNC2)CNC3=O)ccn1)c1cccc(F)c1 (racemic)	30	
1100	480	1.9					0.6	O=C(Nc1cc(-c2cc3c([nH]2)C2(CCNC2)CNC3=O)ccn1)c1cccc(F)c1 (racemic)	170	
490	520	0.96						O=C1NCC2(CCNCC2)c2[nH]c(-c3ccnc(NC(=O)c4cccc5ccccc45)c3)cc21	650	
80	130	1.5	9.1	0.042				O=C(Nc1cc(-c2cc3c([nH]2)C2(CCNCC2)CNC3=O)ccn1)c1cccc(OC(F)(F)F)c1	160	
1100	840	1.3						O=C(Nc1cc(-c2cc3c([nH]2)C2(CCNC2)CNC3=O)ccn1)c1ccc(F)cc1 (racemic)	200	
720	920	2.3						Cc1ccc(C(=O)Nc2cc(-c3cc4c([nH]3)C3(CCN(C)CC3)CNC4=O)ccn2)cc1C		
	7400	31			> 10000			O=C(Nc1cc(-c2cc3c([nH]2)C2(CCCNC2)CNC3=O)ccn1)c1ccc(F)cc1 (single isomer, unassigned; isomer 2)		1600
1700	390	0.62	8.5	0.002				O=C(Nc1cc(-c2cc3c([nH]2)C2(CCNC2)CNC3=O)ccn1)c1ccc2ccccc2c1 (racemic)		
3900	660	4.1						O=C(Nc1cc(-c2cc3c([nH]2)C2(CCNC2)CNC3=O)ccn1)c1ccccn1 (racemic)		
3400		3.1						Cc1ccc(C(=O)Nc2nccc(-c3cc4c([nH]3)C3(CCNCC3)CNC4=O)n2)cc1C		
